Measured values published in patent US7507716B2, “Method for treating pain with prolactin antagonists” (Board of Regents, The University of Texas System, priority 2005, dated 2009).

B1: PRL: Ovine PRL [oPRL-21, BIO] provided by NHPP; prolactin polypeptide hormone (protein, UniProt P01240 31-229, looked up)
Prolactin: TPVCPNGPGNCQVSLRDLFDRAVMVSHYIHNLSSEMFNEFDKRYAQGKGFITMALNSCHTSSLPTPEDKEQAQQTHHEVLMSLILGLLRSWNDPLYHLVTEVRGMKGVPDAILSRAIEIEEENKRLLEGMEMIFGQVIPGAKETEPYPVWSGLPSLQTKDEDARHSAFYNLLHCLRRDSSKIDTYLKLLNCRIIYNNNC

Tests used:
[1] = test system: PRL mRNA; test: Real-time RT-PCR of PRL mRNA in trigeminal ganglia; format: in vivo, rat
Source text: The S.A.M. and GeneSpring 5.1 analyses identified 18 genes whose expression increased and 3 genes whose expression decreased. […] The expression profile of genes selected using the microarray screen was confirmed by real-time RT-PCR. Validated primers were used for each gene and expression was normalized to the housekeeping gene 18S. Data are presented as mean±SEM (n=5/group, **=p<0.01 and ***=p<0.001 versus respective vehicle control; two-tailed unpaired T test). […] For this reason, PRL was selected for further study as a candidate therapeutic target for female-biased pain disorders.
Reactions were performed using primers specific for PRL gene and the internal control (18S). Data were normalized to the relative amount of OVX (vehicle) PRL mRNA/18S. Data are presented as mean±SEM (n=5/group, **=p<0.01 and ***=p<0.001 vs. PRL mRNA of the OVX/Vehicle group; one-way ANOVA with Bonferroni's post hoc test). […] Moreover, the relative PRL mRNA expression in the TG of intact female rats during proestrous was 78-fold greater (p<0.001). The TG samples collected from these groups were also subjected to Western blot analysis to determine the relative expression of PRL protein. […] The results obtained from these experiments were quantified as described in the METHODS section. […] The specificity of anti-PRL antibodies was evaluated by a use of the blocking peptide corresponding to the epitope of PRL. Pre-absorption of anti-PRL antibodies with the blocking peptide nearly eliminated the PRL-specific band (FIGS. 2B, 2C).
RNA isolation: Harvested TG tissue from OVX (treated with vehicle or estradiol) or intact proestrous female rats were immediately frozen in liquid nitrogen and ground in a pre-chilled mortar. The ground tissue was used to isolate total RNA by the guanidinium thiocyanate method as described previously (Chomczynski and Sacchi, 1987). […] Additional RNA sample aliquots were used as template for the quantitative real time RT-PCR experiments.
Quantitative Real Time RT-PCR (qRT-PCR): Total RNA (100 ng) was used as template in a one-step RT-PCR protocol. […]

[2] = test system: TG neurons; test: Capsaicin-evoked iCGRP release from cultured TG neurons (RIA); format: cell-based, rat; details: PRL 40 nM, capsaicin 50 nM
Method: Release of iCGRP from cultured neurons was measured by radioimmunoassay. Data are presented as mean % of vehicle±SEM (n=4/group, *=P<0.05 and **=P<0.01 vs. iCGRP levels of each control group; two-tailed unpaired T test).
Rat trigeminal ganglia (TG) primary cultures: The TG from ovariectomized or intact female rats were quickly removed after decapitation and neuronal cultures were prepared as previously described (Fehrenbacher et al., 2005; Patwardhan et al., 2005). The trypsin treatment was omitted in TG cultures prepared for electrophysiological recording and Ca^2+ imaging. Cells were plated on 24 well Poly-D-Lysine coated plates (for iCGRP experiments), 6 well Poly-D-Lysine plates (for PRL release experiments), Poly-D-Lysine/laminin-coated coverslips (for single cell studies) or 10 cm plates (for phosphorylation experiments), respectively. The TG cultures were maintained at 37° C. and 5% CO2. […] The media were replaced at the end of 24 h and then 48 h later.
CGRP release assay: All culture experiments were performed on day 5 at 37° C. using modified Hanks (Gibco) buffer (10.9 mM HEPES, 4.2 mM sodium bicarbonate, 10 mM dextrose and 0.1% bovine serum albumin were added to 1× Hanks). After two initial washes, a 15 min baseline sample was collected. […]

Row | Molecule | PRL mRNA estradiol responsiveness in TG neurons ([1]; OVX rats undergoing estradiol replacement, summary statement) [fold] | increase in PRL mRNA expression in TG vs OVX control rats ([1]; OVX rats with estradiol replacement 80 μg/kg/day×10 days, normalized to 18S, FIG. 2A) | increase in PRL mRNA expression in response to estradiol ([1]; TG of OVX rats, 80 μg/kg/day for 10 days vs vehicle, normalized to 18S, FIG. 1) [fold] | PRL sensitization of capsaicin-evoked iCGRP release ([2]; OVX TG neurons cultured 5 days with 50 nM estradiol) | PRL sensitization of capsaicin-evoked iCGRP release ([2]; OVX TG neurons cultured in the absence of E2)
1 | C[C@]12CC[C@@H]3c4ccc(O)cc4CC[C@H]3[C@@H]1CC[C@@H]2O [estradiol, 17-β-estradiol] | > 40 | approximately 50 fold | 48 |  | 
2 | B1 |  |  |  | significantly restored | no effect was observed
